Experimental data from US8148415B2, “Sulfamic acid ester compounds useful in the inhibition of steroid sulphatase activity and aromatase activity” (Sterix Limited, priority 2004, dated 2012).
Where two headings read alike, the source gives them in different places.

Columns and labels:
Aromatase = molecular target: T1, Aromatase (Homo sapiens, UniProt P11511); assay: Aromatase activity in intact JEG3 choriocarcinoma cells (Protocol 6); type: cell-based
T1 construct: Aromatase activity is measured in JEG3 choriocarcinoma cells, obtained from the ATCC; host or cells: JEG3 choriocarcinoma cells
T1 sequence (P11511 1-503): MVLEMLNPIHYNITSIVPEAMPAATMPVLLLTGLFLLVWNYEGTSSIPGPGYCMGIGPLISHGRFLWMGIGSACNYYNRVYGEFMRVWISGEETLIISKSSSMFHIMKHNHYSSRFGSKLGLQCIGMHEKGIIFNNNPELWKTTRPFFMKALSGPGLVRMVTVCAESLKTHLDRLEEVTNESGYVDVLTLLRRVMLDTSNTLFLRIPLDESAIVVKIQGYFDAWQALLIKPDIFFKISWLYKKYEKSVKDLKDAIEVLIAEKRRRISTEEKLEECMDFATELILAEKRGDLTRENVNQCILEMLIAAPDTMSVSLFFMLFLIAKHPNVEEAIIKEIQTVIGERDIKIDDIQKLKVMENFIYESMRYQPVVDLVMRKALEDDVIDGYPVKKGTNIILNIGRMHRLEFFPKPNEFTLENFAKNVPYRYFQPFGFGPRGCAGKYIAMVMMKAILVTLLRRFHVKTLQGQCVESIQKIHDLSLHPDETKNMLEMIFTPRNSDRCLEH

Steroid sulphatase [1] = molecular target: T2, Steroid sulphatase (Homo sapiens, UniProt P08842); assay: Inhibition of steroid sulphatase activity in intact JEG3 cells (Protocol 1); type: cell-based; design: host or cells: JEG3 choriocarcinoma cells; details: read-out: JEG3 cells IC50 Sulfatase
T2 sequence (P08842 22-583): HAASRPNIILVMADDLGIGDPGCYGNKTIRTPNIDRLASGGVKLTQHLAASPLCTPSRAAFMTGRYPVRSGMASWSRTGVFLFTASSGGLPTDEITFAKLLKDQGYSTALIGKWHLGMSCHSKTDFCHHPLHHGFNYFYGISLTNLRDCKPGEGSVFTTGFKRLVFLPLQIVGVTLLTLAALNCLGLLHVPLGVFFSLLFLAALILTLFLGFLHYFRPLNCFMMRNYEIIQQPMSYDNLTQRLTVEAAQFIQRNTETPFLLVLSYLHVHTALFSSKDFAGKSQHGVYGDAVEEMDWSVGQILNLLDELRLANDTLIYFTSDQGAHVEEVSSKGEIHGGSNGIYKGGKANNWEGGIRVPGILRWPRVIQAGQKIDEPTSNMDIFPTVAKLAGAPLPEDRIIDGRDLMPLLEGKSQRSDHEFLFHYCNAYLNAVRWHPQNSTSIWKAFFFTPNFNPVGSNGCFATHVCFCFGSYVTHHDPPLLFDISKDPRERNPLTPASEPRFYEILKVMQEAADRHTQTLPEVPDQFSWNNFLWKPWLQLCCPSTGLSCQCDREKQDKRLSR
Method: Assay for Determining STS Activity Using Cancer Cells
Inhibition of Steroid Sulphatase Activity in JEG3 Cells
Steroid sulphatase activity is measured in vitro using intact JEG3 choriocarcinoma cells. This cell line may be used to study the control of human breast cancer cell growth.
Cells are maintained in Minimal Essential Medium (MEM) (Flow Laboratories, Irvine, Scotland) containing 20 mM HEPES, 5% foetal bovine serum, 2 mM glutamine, non-essential amino acids and 0.075% sodium bicarbonate. Up to 30 replicate 25 cm2 tissue culture flasks are seeded with approximately 1×10^5 cells/flask using the above medium. Cells are grown to 80% confluency and the medium is changed every third day.
Intact monolayers of JEG3 cells in triplicate 25 cm^2 tissue culture flasks are washed with Earle's Balanced Salt Solution (EBSS from ICN Flow, High Wycombe, U.K.) and incubated for 3-4 hours at 37° C. with 5 pmol (7×10^5 dpm) [6,7-3H]oestrone-3-sulphate (specific activity 60 Ci/mmol from New England Nuclear, Boston, Mass., U.S.A.) in serum-free MEM (2.5 ml) together with oestrone-3-sulphamate (11 concentrations: 0; 1 fM; 0.01 pM; 0.1 pM; 1 pM; 0.01 nM; 0.1 nM; 1 nM; 0.01 mM; 0.1 mM; 1 mM). […] A portion (2 ml) of the organic phase is removed, evaporated and the 3H and 14C content of the residue determined by scintillation spectrometry. […]

Steroid sulphatase [2] = molecular target: T2, Steroid sulphatase; details: cited from earlier work
rats = details: rat, in vivo, cited from earlier work
[3] = cited from earlier work
E1-STS = molecular target: T3, E1-STS (Homo sapiens, UniProt P08842); details: intact MCF-7 cells, 0.1 nM; cited from earlier work
T3 construct: endogenous in cells; host or cells: MCF-7 cells
T3 sequence (P08842 22-583): T2 sequence (P08842 22-583)

rat liver E1-STS = molecular target: T4, rat liver E1-STS (Rattus norvegicus, UniProt P15589); details: administered orally or subcutaneously; cited from earlier work
T4 construct: from tissue; host or cells: rat liver
T4 sequence (P15589 20-577): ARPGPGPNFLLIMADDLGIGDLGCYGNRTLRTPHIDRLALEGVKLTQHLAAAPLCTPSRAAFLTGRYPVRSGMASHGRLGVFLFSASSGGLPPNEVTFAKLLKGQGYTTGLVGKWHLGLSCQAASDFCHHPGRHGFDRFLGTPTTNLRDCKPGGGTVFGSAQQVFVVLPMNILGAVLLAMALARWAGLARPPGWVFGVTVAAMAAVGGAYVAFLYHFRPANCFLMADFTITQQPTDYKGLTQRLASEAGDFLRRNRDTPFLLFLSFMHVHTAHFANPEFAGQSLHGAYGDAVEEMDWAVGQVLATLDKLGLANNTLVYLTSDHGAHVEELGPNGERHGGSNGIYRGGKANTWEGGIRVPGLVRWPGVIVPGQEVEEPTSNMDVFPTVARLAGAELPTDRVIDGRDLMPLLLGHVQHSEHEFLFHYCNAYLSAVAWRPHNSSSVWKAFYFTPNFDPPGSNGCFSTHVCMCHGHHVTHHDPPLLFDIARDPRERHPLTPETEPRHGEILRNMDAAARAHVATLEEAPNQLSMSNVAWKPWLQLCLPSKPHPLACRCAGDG

rat liver DHEA-STS = molecular target: T5, rat liver DHEA-STS (Rattus norvegicus, UniProt P15589); details: administered orally or subcutaneously; cited from earlier work
T5 construct: rat liver E1-STS (99%) and DHEA-STS (99%) activities; from tissue; host or cells: rat liver
T5 sequence (P15589 20-577): T4 sequence (P15589 20-577)

Question: With `N#Cc1ccc(N(Cc2cccc(OS(N)(=O)=O)c2)n2cnnc2)cc1` [STX334, 4-[(3-O-Sulfamoylbenzyl)(4-cyanophenyl)amino]-4H-[1,2,4]triazole] as the molecule, how does the IC50 (Aromatase; intact JEG3 cells) read?
Answer: Its IC50 is 0.039 µM.

Question: And the IC50 (Steroid sulphatase [1])?
Answer: The IC50 was 5.13 µM.

Question: Which “potency as steroid sulphatase inhibitor relative to EMATE” value (Steroid sulphatase [2]) does the source give for `COc1cc2c(cc1OS(N)(=O)=O)CC[C@@H]1[C@@H]2CC[C@]2(C)C(=O)CC[C@@H]12` [2-methoxyoestrone-3-O-sulphamate] here?
Answer: The value was “equipotent with EMATE”.

Question: What about the oestrogenicity (rats) of the same molecule?
Answer: The oestrogenicity was “devoid of oestrogenicity”.

Question: For `N#Cc1ccc(N(Cc2ccc(Br)c(OS(N)(=O)=O)c2)n2cnnc2)cc1` [STX1217, 4-[(4-Bromo-3-O-sulfamoylbenzyl)(4cyanophenyl)amino]-4H-[1,2,4]triazole], which IC50 (Aromatase) is on record?
Answer: Its IC50 is 0.0039 µM.

Question: With `COc1ccc(C(c2ccc(OC)c(O)c2)n2cncn2)cc1O` as the molecule, how does the melting point read?
Answer: The melting point was 217.5 to 219 °C.

Question: With `C[C@]12CC[C@@H]3c4ccc(OS(=O)(=O)O)cc4CC[C@H]3[C@@H]1CCC2=O` [E1S, oestrone sulphate] as the molecule, how does the half-life in blood [3] read?
Answer: The half-life in blood was 10 to 12 h.

Question: With `CC12CCC3c4ccc(OS(N)(=O)=O)cc4CCC3C1CCC2=O` (centres unmarked) [EMATE, oestrone-3-sulphamate] as the molecule, how does the “inhibition of E1-STS activity” value (E1-STS) read?
Answer: Its value is “more than 99%”.

Question: What about the “inhibition of rat liver E1-STS activity” value (rat liver E1-STS) of the same molecule?
Answer: The value was 99%.

Question: And the “inhibition of rat liver DHEA-STS activity” value (rat liver DHEA-STS)?
Answer: The value was 99%.

Question: And the “oral uterotrophic activity relative to estradiol” value (rats; po)?
Answer: The value was 100 times.
